In patent US4666902A, “Tetrahydropyridazinone derivatives, processes for their preparation and their use” (Cassella Aktiengesellschaft, priority 1983, dated 1987):

system: thrombocyte aggregation induced by arachidonic acid; assay: Inhibition of thrombocyte aggregation in vitro (Born), arachidonic acid; assay type: cell-based; conditions: induced by 0.36 mM of arachidonic acid
Method: (§1) The values of tables 3 to 5 showing the inhibition of the thrombocytic aggregation were determined in vitro according to the Born method (J. Physiol. 162 67 P (1962)) using arachidonic acid, thrombin or adenosine diphosphate as aggregation agent.
Inhibition of thrombocyte aggregation in vitro (according to BORN)
induced by 0.36 mM of arachidonic acid

Row | Structure (SMILES) | IC50 [µM]
1 | COc1ccc(C2=NNC(=O)CC2COC(=O)c2cccnc2)cc1OC (centres unmarked) [drawing 94] | 30
2 | CC(=O)Nc1ccc(C2=NN(C)C(=O)CC2CO)cc1 (centres unmarked) [drawing 82] | > 100
3 | COc1ccc(C2=NNC(=O)CC2COC(=O)COc2ccc(Cl)cc2)cc1OC (centres unmarked) [drawing 83] | 4
4 | O=C1CC(CO)C(c2c[nH]c3ccccc23)=NN1 (centres unmarked) [drawing 93] | 0.55
5 | Cc1nnc(COc2ccc(C3=NNC(=O)CC3CO)cc2)o1 (centres unmarked) [drawing 79] | 1
6 | COc1cc(C2=NNC(=O)CC2CO)cc(OC)c1OC (centres unmarked) | 6
7 | Cc1cc(COc2ccc(C3=NN(C)C(=O)CC3CO)cc2)[nH]c(=O)c1 (centres unmarked) | 15
8 | COc1ccc(C2=NNC(=O)CC2CO)cc1OC (centres unmarked) [drawing 88] | 0.6
9 | O=C1CC(CO)C(c2ccc(OCCn3ccnc3)cc2)=NN1 (centres unmarked) [drawing 80] | 2
10 | CC(=O)Nc1ccc(C2=NNC(=O)CC2CO)cc1 (centres unmarked) [drawing 91] | 0.2
11 | O=C1CC(CO)C(c2ccc(OCc3cccnc3)cc2)=NN1 (centres unmarked) [drawing 85] | 0.45
12 | O=C1CC(CO)C(c2ccc(N3CCCC3=O)cc2)=NN1 (centres unmarked) [drawing 87] | 0.4
13 | O=C1CC(CO)C(c2ccc(Cl)cc2)=NN1 (centres unmarked) [drawing 90] | 0.9
14 | N#Cc1ccc(C2=NNC(=O)CC2CO)cc1 (centres unmarked) [drawing 81] | 0.3
15 | O=C1CC(CO)C(c2ccccc2)=NN1 (centres unmarked) [drawing 75] | 5
16 | O=C1CC(CO)C(c2cccs2)=NN1 (centres unmarked) [drawing 86] | 50
17 | O=C1CC(CO)C(c2cccc([N+](=O)[O-])c2)=NN1 (centres unmarked) [drawing 78] | 1.5
18 | COc1ccc(C2=NN(C)C(=O)CC2CO)cc1OC (centres unmarked) | 40

system: action of arachidonic acid; assay: Influence on the action of arachidonic acid in vivo under anesthesia (Lefort and Vargaftig); design: species or system guinea pig; key: -: no action; (+): weak; +: medium; ++: strong; +++: very strong; conditions: 0.1-1 mg/kg i.v.
Method: The values of Table 2 showing the influence on the action of arachidonic acid were determined in guinea pigs under anesthesia using the Lefort and Vargaftig method (Br. J. Pharmac. 63, 35 (1978)).
Influence on the action of arachidonic acid (arachidonic acid
500 g/kg i.v.) in vivo in guinea pigs under anesthesia

Row | Structure (SMILES) | PGI2 Effect: Lowering of blood pressure | TXA2 Effect: Bronchospasm | TXA2 Effect: Thrombocytopenia
19 | CC(=O)Nc1ccc(C2=NNC(=O)CC2CO)cc1 (centres unmarked) [drawing 65] | ++ | ++ | ++

same assay, conditions: 0.3-3 mg/kg i.v.

Row | Structure (SMILES) | PGI2 Effect: Lowering of blood pressure | TXA2 Effect: Bronchospasm | TXA2 Effect: Thrombocytopenia
20 | COc1ccc(C2=NNC(=O)CC2CO)cc1OC (centres unmarked) [drawing 69] | +++ | ++ | ++
21 | O=C1CC(CO)C(c2ccc(N3CCCC3=O)cc2)=NN1 (centres unmarked) [drawing 62] | + | + | ++

same assay, conditions: 1-10 mg/kg i.v.

Row | Structure (SMILES) | PGI2 Effect: Lowering of blood pressure | TXA2 Effect: Bronchospasm | TXA2 Effect: Thrombocytopenia
22 | O=C1CC(CO)C(c2ccc(Cl)cc2)=NN1 (centres unmarked) [drawing 56] | (+) | (+) | (+)
23 | COc1ccc(C2=NNC(=O)CC2COC(=O)COc2ccc(Cl)cc2)cc1OC (centres unmarked) [drawing 71] | + | (+) | -
24 | O=C1CC(CO)C(c2ccc(OCCn3ccnc3)cc2)=NN1 (centres unmarked) [drawing 66] | (+) | + | ++
25 | O=C1CC(CO)C(c2ccccc2)=NN1 (centres unmarked) [drawing 53] | (+) | (+) | -
26 | O=C1CC(CO)C(c2ccc[nH]2)=NN1 (centres unmarked) [drawing 63] | (+) | ++ | +++
27 | O=C1CC(CO)C(c2c[nH]c3ccccc23)=NN1 (centres unmarked) [drawing 70] | (+) | + | +++
28 | Cc1nnc(COc2ccc(C3=NNC(=O)CC3CO)cc2)o1 (centres unmarked) [drawing 58] | + | ++ | ++
29 | O=C1CC(CO)C(c2ccc(OCc3cccnc3)cc2)=NN1 (centres unmarked) [drawing 73] | - | + | +
30 | Cc1cc(COc2ccc(C3=NNC(=O)CC3CO)cc2)[nH]c(=O)c1 (centres unmarked) | - | (+) | (+)
31 | O=C1CC(CO)C(c2cccc([N+](=O)[O-])c2)=NN1 (centres unmarked) [drawing 57] | (+ ) | ++ | +
32 | O=C1CC(CO)C(c2ccco2)=NN1 (centres unmarked) | - | (+) | (+)
33 | COc1ccc(C2=NNC(=O)CC2COC(=O)c2cccnc2)cc1OC (centres unmarked) [drawing 59] | - | (+) | (+)
34 | Cc1ccc(C2=NNC(=O)CC2CO)cc1 (centres unmarked) [drawing 54] | (+) | (+) | (+)
35 | CC(=O)Nc1ccc(C2=NN(C)C(=O)CC2CO)cc1 (centres unmarked) [drawing 61] | (+) | (+) | (+)
36 | COc1ccc(C2=NNC(=O)CC2CO)cc1 (centres unmarked) [drawing 55] | ++ | (+) | -

same assay, conditions: 3-10 mg/kg i.v.

Row | Structure (SMILES) | PGI2 Effect: Lowering of blood pressure | TXA2 Effect: Bronchospasm | TXA2 Effect: Thrombocytopenia
37 | O=C1CC(CO)C(c2cccs2)=NN1 (centres unmarked) [drawing 68] | (+) | (+) | (+)

system: thrombocyte aggregation induced by thrombin; assay: Inhibition of thrombocyte aggregation in vitro (Born), thrombin; assay type: cell-based; conditions: induced by 0.2-0.4 N.I.H. units/ml (thrombin)
Method: as §1
Inhibition of thrombocyte aggregation in vitro
(according to BORN) induced by 0.2-0.4 N.I.H. units/ml

Row | Structure (SMILES) | IC50 [µM]
38 | CC(=O)Nc1ccc(C2=NNC(=O)CC2CO)cc1 (centres unmarked) [drawing 100] | 0.7
39 | COc1ccc(C2=NNC(=O)CC2COC(=O)COc2ccc(Cl)cc2)cc1OC (centres unmarked) [drawing 102] | > 100
40 | COc1ccc(C2=NNC(=O)CC2CO)cc1 (centres unmarked) [drawing 98] | 2.5
41 | O=C1CC(CO)C(c2ccc(Cl)cc2)=NN1 (centres unmarked) [drawing 99] | 6
42 | COc1ccc(C2=NNC(=O)CC2CO)cc1OC (centres unmarked) [drawing 101] | 2

system: experimental thrombosis, arterial; assay: Arterial thrombotic protection, experimental thrombosis in vivo (Meng and Seuter); conditions: 0.3 mg/kg i.p.
Method: (§2) The values of the arterial thrombotic protection given in table 1 were determined in rats according to the method of Meng and Seuter (Naunyn-Schmiedeberg's Arch. Pharmacol. 301, 115 (1977)), those of the venous thrombotic protection were determined in rabbits according to the Harbauer method ("Versuche zur Entwicklung eines standardisierten venosen Thrombosemodells am Kaninchen" ("Tests for developing a standardized venous thrombotic model in rabbits"), 17th Angiologic Symposium, Kitzbuhel (1982)).
(§3) Influence on the experimental thrombosis in vivo

Row | Structure (SMILES) | Thrombotic Protection % arterial (rat) [%]
43 | CC(=O)Nc1ccc(C2=NNC(=O)CC2CO)cc1 (centres unmarked) [drawing 46] | 30

same assay, conditions: 1 mg/kg i.p.

Row | Structure (SMILES) | Thrombotic Protection % arterial (rat) [%]
44 | CC(=O)Nc1ccc(C2=NNC(=O)CC2CO)cc1 (centres unmarked) [drawing 46] | 80
45 | O=C1CC(CO)C(c2ccc[nH]2)=NN1 (centres unmarked) [drawing 50] | 42

system: thrombocyte aggregation induced by ADP; assay: Inhibition of thrombocyte aggregation in vitro (Born), ADP; assay type: cell-based; conditions: induced by 10 μM ADP
Method: as §1
Inhibition of thrombocyte aggregation in vitro (according to
BORN) induced by 10 μM ADP

Row | Structure (SMILES) | IC50 [µM]
46 | COc1ccc(C2=NNC(=O)CC2CO)cc1 (centres unmarked) [drawing 107] | 50
47 | O=C1CC(CO)C(c2ccc(N3CCCC3=O)cc2)=NN1 (centres unmarked) [drawing 113] | 20
48 | CC(=O)Nc1ccc(C2=NNC(=O)CC2CO)cc1 (centres unmarked) [drawing 109] | 10
49 | O=C1CC(CO)C(c2ccc(OCCn3ccnc3)cc2)=NN1 (centres unmarked) [drawing 112] | 150
50 | O=C1CC(CO)C(c2ccc(OCc3cccnc3)cc2)=NN1 (centres unmarked) [drawing 114] | 36
51 | Cc1ccc(C2=NNC(=O)CC2CO)cc1 (centres unmarked) [drawing 106] | 150
52 | N#Cc1ccc(C2=NNC(=O)CC2CO)cc1 (centres unmarked) [drawing 115] | 20
53 | Cc1nnc(COc2ccc(C3=NNC(=O)CC3CO)cc2)o1 (centres unmarked) [drawing 111] | 20
54 | O=C1CC(CO)C(c2ccccc2)=NN1 (centres unmarked) [drawing 105] | > 100
55 | COc1ccc(C2=NNC(=O)CC2CO)cc1OC (centres unmarked) [drawing 110] | 9
56 | O=C1CC(CO)C(c2ccc(Cl)cc2)=NN1 (centres unmarked) [drawing 108] | 70

system: experimental thrombosis, venous; assay: Venous thrombotic protection, experimental thrombosis in vivo (Harbauer); conditions: 0.3 mg/kg i.p.
Method: as §2, §3

Row | Structure (SMILES) | Thrombotic Protection % venous (rabbit) [%]
57 | CC(=O)Nc1ccc(C2=NNC(=O)CC2CO)cc1 (centres unmarked) [drawing 46] | 60

same assay, conditions: 1 mg/kg i.p.

Row | Structure (SMILES) | Thrombotic Protection % venous (rabbit) [%]
58 | CC(=O)Nc1ccc(C2=NNC(=O)CC2CO)cc1 (centres unmarked) [drawing 46] | 78

same assay, conditions: 3 mg/kg i.p.

Row | Structure (SMILES) | Thrombotic Protection % venous (rabbit) [%]
59 | O=C1CC(CO)C(c2ccc(OCCn3ccnc3)cc2)=NN1 (centres unmarked) [drawing 47] | 57

same assay, conditions: 10 mg/kg i.p.

Row | Structure (SMILES) | Thrombotic Protection % venous (rabbit) [%]
60 | O=C1CC(CO)C(c2ccc(OCCn3ccnc3)cc2)=NN1 (centres unmarked) [drawing 47] | 86
61 | Cc1nnc(COc2ccc(C3=NNC(=O)CC3CO)cc2)o1 (centres unmarked) [drawing 45] | 50
62 | O=C1CC(CO)C(c2ccc(N3CCCC3=O)cc2)=NN1 (centres unmarked) [drawing 48] | 83
63 | O=C1CC(CO)C(c2ccc(Cl)cc2)=NN1 (centres unmarked) [drawing 44] | 57
